From a melting point compilation (Tetko et al.; mined from patent text by program, amines drawn as free bases though some values may be those of a salt)

| Compound | melting point |
| --- | --- |
| S=C(NCCCc1ccccc1)Nc1nccs1 | 126 to 128 °C |
| CN(C)Cc1ccc(CSCCNc2ncc(N)c(=O)[nH]2)o1 | 127 to 132 °C |
| CC(Cl)CC1Oc2ncccc2C(=S)NC1C (configuration not stated) | 95 to 97 °C |
| CCOC(=O)c1cc(CC(C(=O)OCC)C(=O)OCC)c2ccccn2c1=O | 105 to 108 °C |
| COc1cc(N)c(Cl)cc1C(=O)NCC1CCN(CCCCCC(=O)c2ccc(Cl)cc2Cl)CC1 | 150 to 155 °C |
| CC(F)(C(N)=O)c1ccc(OS(=O)(=O)C(F)(F)F)cc1 (configuration not stated) | 75 to 78 °C |
| COc1ccc2c(c1)C(=NN1CCOC1=O)CCO2 | 54 to 64 °C |
| CCCCNc1ncc(C(=O)c2ccc(Cl)c([N+](=O)[O-])c2)s1 | 192 to 194 °C |
| N#CN=C(NCCSCc1nccs1)NCCSCc1nccs1 | 66 to 68 °C |
| O=C(OC(Cc1c[nH]cn1)C(=O)O)C(Cc1ccccc1)Cc1ccccc1 (configuration not stated) | 210 °C |
| Cc1c(F)c(N2CC[C@@H](C(C)(C)N)C2)cc2c1c(=O)c(C(=O)O)cn2-c1ccc(F)cc1F | 156 to 158 °C |
| CCCCCCCCCCCC[C@]1(O)C(=O)O[C@H](C(=O)OC)[C@@]1(O)C(=O)OC (racemic) | 74 to 76 °C |
| CC(C)(C)c1cc(OCc2n[nH]c(=O)o2)cc(C(C)(C)C)c1O | 138 to 140 °C |
| CC(=O)N[C@@H]1CCN(S(=O)(=O)c2ccc(Cl)c(CBr)c2Cl)C1 | 222 °C |
| C#CCNc1ccc([N+](=O)[O-])cc1[N+](=O)[O-] | 151 to 152 °C |
| CC(=O)OC1CSC(Oc2ccnc(-c3ccc(F)nc3)c2)C(OC(C)=O)C1OC(C)=O (configuration not stated) | 151 °C |
| Nc1ccc(N2CCCCC2)c(C(=O)O)c1 | 232 to 235 °C |
| CCCCCCCCCCCCCCCCCc1nc(N)nc(N)n1 | 114 to 116 °C |
| CN1CC(CCN2CCN(c3ccc([N+](=O)[O-])cc3)CC2)OC1=O (configuration not stated) | 155 to 156 °C |
| CCN(CCNS(C)(=O)=O)c1ccc(NC(C)=O)c(C)c1 | 104 to 105 °C |
| CON(C)C(=O)c1cc(Br)cnc1N1CCCC1 | 94 to 96 °C |

| Compound | melting point |
| --- | --- |
| CCC(=O)Nc1cccc2c1CCC(NC(=O)CC)C2 (configuration not stated) | 270 °C |
| CS(=O)(=O)OC[C@@H]1CN(c2ccc(O)cc2)C(=O)O1 | 282 to 284 °C |
| COC(=O)C1=C(C(F)F)NC(C)=C(C(=O)OC(C)C)C1c1cccc(Cl)c1Cl (configuration not stated) | 156 to 157 °C |
| CS(=O)(=O)NCCCOS(C)(=O)=O | 53.5 to 55.5 °C |
| CCCc1nc(N)c(C#N)[nH]1 | 117 to 119 °C |
| C=CCSc1nc(=O)n(-c2ccsc2)cc1F | 125 to 127 °C |
| COC(=O)c1cc(C#CC2(c3ccc(OC)c(OC4CCCC4)c3)CCC(=O)CC2)cc(C(=O)OC)c1 | 134 to 135 °C |
| CC[C@H]1[C@@H](N)CN1c1cc2c(cc1F)c(=O)c(C(=O)O)cn2C1CC1 (relative stereo) | 236 to 237 °C |
| CCCCOC(=O)c1ccc(OC(=O)c2ccc(C(=O)Oc3ccc(C(=O)OCCCC)cc3)cc2)cc1 | 128 to 131 °C |
| CC1=C(C(=O)OC(C)C)C(c2cccc([N+](=O)[O-])c2)N(C(=O)N(C)C)C(N)=N1 (configuration not stated) | 202 to 203 °C |
| CCOC(=O)C1=C(COCC(=O)O)NC(C)=C(C(=O)OC)C1c1ccccc1Cl (configuration not stated) | 150 to 154 °C |
| CC(C)Nc1cccnc1N1CCN(C(=O)c2ccc(C(=O)N3CCN(CCCO)CC3)cc2)CC1 | 129 °C |
| Cc1cccn2ccnc12 | 150 to 152 °C |
| COc1cc2c(N3CCc4ccc(Cl)cc43)ncnc2c(OC)c1OC | 139 to 143 °C |
| CCc1nc2c(c(C)c(C)n3nnnc23)n1CCOCCN1CCCS1(=O)=O | 176 to 178 °C |
| COC(=O)c1cncn1C1c2ccccc2C2OC2C1(C)C (configuration not stated) | 60 to 68 °C |
| O=C(O)COc1ccc(-c2c(Cl)c(CN3C(=O)CCC3=O)nc3sc4c(c23)CCS(=O)C4)cc1 (configuration not stated) | 205 to 206 °C |
| O=C(N1CCCC1)N1Cc2c(-c3noc(C4CC4)n3)ncn2-c2cccc(F)c21 | 220 to 222 °C |
| CC(=O)N1c2ccc(S(=O)(=O)C[N+](=O)[O-])c(C)c2CC1C (configuration not stated) | 157 °C |
| COc1cc(O)nc(N)n1 | 106 to 107 °C |
| CC(=O)NC1CC(C)(C)N(OCc2cccc(C)c2)C(C)(C)C1 | 163 to 164 °C |

Second part, the molecule after the results:

| melting point | Compound |
| --- | --- |
| 200 to 202 °C | CC(C(=O)O)c1cccc2c(-c3ccc(Cl)cc3)nccc12 (configuration not stated) |
| 166 °C | CC(C)(C)OC(=O)CCc1cccc(-c2nc(=O)c3ccccc3s2)n1 |
| 164 to 166 °C | OCC1Cc2c(c(Br)cc3c(-c4ccccc4)noc23)O1 (configuration not stated) |
| 282 to 283 °C | COc1cc2nc(Cn3cnc4c(N)ncnc43)n(-c3ccccc3Cl)c(=O)c2cc1OC |
| 95 to 96 °C | CCOCc1cc2ccccc2oc1=O |
| 98 to 99 °C | CC(C)(C)OC(=O)n1cccc1-c1ccc(C[C@H](NC(=O)c2c(Cl)cccc2Cl)C(=O)O)cc1 |
| 166 to 169 °C | CN1OC(C=Cc2ccccc2)CC1(Cn1ccnc1)c1ccc2ccccc2c1 (configuration not stated) |
| 129 to 131 °C | N#CC(c1ccccc1)(c1ccccc1)[C@H]1CCCN(CCc2ccc(Cl)cc2)C1 |
| 73.5 to 84.5 °C | O=[N+]([O-])c1cc(-c2nc3ccccc3s2)cc([N+](=O)[O-])c1 |
| 280 to 282 °C | Cc1cnc2c(NC(=O)c3c(Cl)cccc3Cl)cccc2c1-n1ccc(=O)cc1 |
| 140 to 145 °C | CS(=O)(=O)c1ccc(C(=O)Nc2ccc(Cl)c(-c3ccc(OCCCCCCC(=O)NO)cn3)c2)c(Cl)c1 |
| 114 to 122 °C | Cc1noc(NS(=O)(=O)c2ccccc2-c2ccc(-c3ncco3)cc2CN(C)C(=O)Cc2ccccc2)c1C |
| 124 °C | Cc1ccc(C2CCCN2S(=O)(=O)c2ccc(C)cc2)cc1 (racemic) |
| 166 °C | Cn1cc(-c2ccccc2)c(=O)c(-c2ccc(F)cc2)c1 |
| 145 to 147 °C | Cc1ccc(-c2cccc3c2OC(COS(=O)(=O)c2ccc(C)cc2)C3)cc1 (configuration not stated) |
| 53 to 55 °C | Oc1ccc(Oc2cccc(F)c2)cc1 |
| 135 to 136 °C | CCCC(Oc1ccccc1COc1ccc2oc(-c3nc(C(C)(C)C)cs3)cc2c1)C(=O)O (configuration not stated) |
| 195 to 196 °C | CC(C)(NS(=O)(=O)c1ccc2oc3cc(Cl)ccc3c2c1)C(=O)NO |
| 109 °C | Brc1cnc(N=C(c2ccccc2)c2ccccc2)s1 |
| 149 to 151 °C | CCOc1cc(N)c(Cl)cc1C(=O)NCCC1CN(Cc2ccccc2)CCO1 (configuration not stated) |
| 178 to 181 °C | Cc1ccc2cccc(OCc3c(Cl)ccc(N(C)C(=O)CNC(=O)CN4CCN(c5ccc([N+](=O)[O-])cc5)CC4)c3Cl)c2n1 |
| 183 °C | CSc1ccc(-c2nn(Cc3ccc(Cl)cc3Cl)c(=S)cc2-c2ccc(Cl)cc2)cc1 |
| 226 to 229 °C | Cc1cc(OCC(=O)O)c2sc3ccccc3c(=O)c2c1C |
| 210 to 212 °C | CC(=O)Nc1c(C(=O)c2ccccc2)[nH]c2ccc([N+](=O)[O-])cc12 |
| 104 to 106 °C | Cc1ccc(-n2c3ccccc3c3ccccc32)cc1 |
| 188 to 190 °C | CSc1ccc(NS(=O)(=O)c2cccc3c(N(C)C)cccc23)nn1 |
| 165 to 167 °C | C=C1C(=O)c2ccccc2OC1(c1ccccc1)c1ccccc1 |
| 117 to 118 °C | CCCCc1nc2ccccc2n1Cc1ccc(-c2ccccc2C=O)cc1 |

| melting point | Compound |
| --- | --- |
| 92 to 96 °C | CCOC(=O)Cn1c(C(=O)NCc2nnc(CO)n2-c2sc(CC)cc2C(=O)c2ccccc2Cl)cc2ccccc21 |
| 67 °C | CC(=O)CC(C)c1ccc(-c2ccccc2)cc1 (configuration not stated) |
| 175 to 177 °C | COC(=O)c1ccc2cc(CCc3cc4c(C(=O)OC)cccc4o3)oc2c1 |
| 135 to 137 °C | O=C1Nc2ccc(F)cc2C1CCCCN1CCN(c2ccc(F)cc2)CC1 (configuration not stated) |
| 44 to 46 °C | C=CCc1c(OC)ccc(-c2cc(-c3ccc(Cl)cc3)n(-c3ccc(OC)cc3)n2)c1OC |
| 168 to 169 °C | COc1cccc(NC(=O)c2ccccc2C(=O)O)c1 |
| 100 to 103 °C | O=C(Cc1cccnc1)N1CCC(C2=c3ccc(Cl)cc3=CCc3c(Cl)ccnc32)CC1 |
| 181 to 183 °C | COc1cc(Cc2cnc(NC(=O)Cc3ccccc3)nc2N)cc(OC)c1OC |
| 275 to 276 °C | CC(C)(C)c1ccc(-c2nnc(N)nc2N)cc1 |
| 56 to 58 °C | O=CC=C(c1ccc(F)cc1)c1ccc(F)cc1 |
| 54 °C | OC1(c2ccccc2)Cc2ccccc2C1 |
| > 250 °C | Cc1ccc(CNCCOc2cccc3[nH]c(=S)[nH]c23)cc1 |
| 199 °C | CCOC(=O)c1cn(C2CC2)c2nc3cc(N4CCNC(c5ccc(OC)cc5)C4)c(F)cc3cc2c1=O (racemic) |
| 191 to 201 °C | O=C(O)COc1ccc2c(c1)sc1cc3ccccc3c(-c3ccc(OC(Cc4ccccc4)C(=O)O)cc3)c12 (configuration not stated) |
| 200 °C | COCCO[C@@H]1c2ccc3c(nc(C)n3C)c2O[C@H](c2ccccc2)[C@H]1OC(=O)COC |
| 162 to 164 °C | Cc1ccc(-c2cc3cc(C=O)ccc3o2)cc1 |
| 207 to 209 °C | CC1(c2ccc(Oc3nc4ccc(Cl)cc4s3)cc2)OC(=O)N(Nc2ccccc2)C1=O (configuration not stated) |
| 130 to 131 °C | CCN1c2ncc(C=Cc3cccc(F)c3)cc2C(=O)N(C)c2ccc(Cl)nc21 |
| 277 to 278 °C | CCn1ncc2c(NCC3CCCCC3)c3cc(NC(C)=O)ccc3nc21 |
| 220 to 223 °C | CCOC(=O)c1cc(-n2c(=O)cc(C)[nH]c2=O)ccc1Cl |
| 260 to 264 °C | CC(c1ccc(CCn2c(=O)[nH]c3cc(-c4ccc(F)cc4)sc3c2=O)cc1)N1CCCC1 (configuration not stated) |
| 142 °C | Cc1c(CC(C)(C)C(=O)O)n(Cc2ccc(Cl)cc2)c2ccc(Cl)cc12 |
| 188 to 189 °C | Cc1cc(-c2nnc3c4ccccc4c(OCc4ncc[nH]4)nn23)no1 |
| 120 to 123 °C | CNc1nc(-c2ccc(OC)c(OC)c2)cs1 |
| 182 to 183 °C | O=C(O)[C@@H]1CC[C@@H](Oc2ccccc2)c2c(-c3ccc(Cl)cc3)noc2C1 (relative stereo) |
| 145 to 147 °C | O=[N+]([O-])c1cc(Cl)c(Oc2ccc(Cl)c3ccccc23)c(Cl)c1 |
| 191 °C | CS(=O)(=O)c1c(Cl)c2cccnc2n(Cc2ccccc2)c1=O |
